Three compounds from publication PMC12615753, “Glutathione as a taste modulator: molecular mechanisms of interaction with umami and sweet taste receptors” (Food Chemistry: Molecular Sciences, 2025) can be followed below.

For one assay, the target named is T1, hTAS1R2/hTAS1R3 (Homo sapiens, UniProt Q7RTX0+Q8TE23).
T1 construct: expressed in transfected cells
T1 sequence (Q8TE23 20-839): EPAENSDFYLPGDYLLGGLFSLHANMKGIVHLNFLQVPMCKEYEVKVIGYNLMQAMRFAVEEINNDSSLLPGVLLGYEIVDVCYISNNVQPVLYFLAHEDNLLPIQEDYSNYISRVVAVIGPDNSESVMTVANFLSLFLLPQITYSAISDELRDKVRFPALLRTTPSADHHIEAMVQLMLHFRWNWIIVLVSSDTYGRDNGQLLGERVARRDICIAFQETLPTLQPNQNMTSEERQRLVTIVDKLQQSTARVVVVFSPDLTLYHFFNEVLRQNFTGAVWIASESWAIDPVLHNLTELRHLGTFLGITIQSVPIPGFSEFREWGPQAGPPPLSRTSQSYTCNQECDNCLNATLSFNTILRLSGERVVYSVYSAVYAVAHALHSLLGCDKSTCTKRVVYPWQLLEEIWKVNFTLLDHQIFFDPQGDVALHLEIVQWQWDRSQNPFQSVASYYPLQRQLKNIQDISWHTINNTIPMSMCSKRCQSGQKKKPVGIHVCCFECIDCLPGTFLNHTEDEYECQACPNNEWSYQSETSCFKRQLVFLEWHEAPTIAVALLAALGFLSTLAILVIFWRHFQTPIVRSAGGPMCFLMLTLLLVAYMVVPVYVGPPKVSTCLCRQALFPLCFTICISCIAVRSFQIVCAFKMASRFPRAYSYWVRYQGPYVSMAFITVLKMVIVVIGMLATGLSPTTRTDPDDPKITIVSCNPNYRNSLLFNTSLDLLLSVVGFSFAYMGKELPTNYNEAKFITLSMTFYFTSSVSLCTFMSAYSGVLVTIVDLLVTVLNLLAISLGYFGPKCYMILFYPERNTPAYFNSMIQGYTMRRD
T1 sequence (Q7RTX0 21-852): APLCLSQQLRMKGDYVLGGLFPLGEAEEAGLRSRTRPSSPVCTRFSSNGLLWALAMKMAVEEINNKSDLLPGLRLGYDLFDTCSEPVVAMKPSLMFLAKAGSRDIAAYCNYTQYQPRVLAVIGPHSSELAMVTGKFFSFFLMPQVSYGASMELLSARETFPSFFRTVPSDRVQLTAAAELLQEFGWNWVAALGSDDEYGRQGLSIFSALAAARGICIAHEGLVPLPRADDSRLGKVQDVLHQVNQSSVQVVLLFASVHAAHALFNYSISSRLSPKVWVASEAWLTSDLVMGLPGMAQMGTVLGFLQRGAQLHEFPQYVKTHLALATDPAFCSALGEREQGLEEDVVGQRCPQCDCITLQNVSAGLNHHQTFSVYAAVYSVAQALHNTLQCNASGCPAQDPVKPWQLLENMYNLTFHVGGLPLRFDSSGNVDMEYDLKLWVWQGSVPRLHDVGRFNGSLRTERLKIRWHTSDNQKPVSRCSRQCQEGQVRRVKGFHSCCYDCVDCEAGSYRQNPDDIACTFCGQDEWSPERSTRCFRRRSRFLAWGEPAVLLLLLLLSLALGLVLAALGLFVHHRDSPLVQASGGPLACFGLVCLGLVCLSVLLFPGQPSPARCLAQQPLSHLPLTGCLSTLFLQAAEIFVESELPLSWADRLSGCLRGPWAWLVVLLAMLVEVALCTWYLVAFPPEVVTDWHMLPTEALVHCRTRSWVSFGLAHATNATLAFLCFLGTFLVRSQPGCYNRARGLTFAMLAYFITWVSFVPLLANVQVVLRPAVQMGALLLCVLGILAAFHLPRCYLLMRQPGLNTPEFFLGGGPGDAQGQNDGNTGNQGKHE
Nature of the assay: Calcium assay in transfected HEK293T/17 cells, sweet taste receptor. It is filed as cell-based. To be noted: for EC50: agonist alone, Fig. 2.

For another assay, the target named is T2, hTAS1R1 (Homo sapiens, UniProt Q7RTX1).
T2 construct: UniProtKB number Q7RTX1–1); expressed in transfected cells; host or cells: HEK293 cells
T2 sequence (Q7RTX1 21-841): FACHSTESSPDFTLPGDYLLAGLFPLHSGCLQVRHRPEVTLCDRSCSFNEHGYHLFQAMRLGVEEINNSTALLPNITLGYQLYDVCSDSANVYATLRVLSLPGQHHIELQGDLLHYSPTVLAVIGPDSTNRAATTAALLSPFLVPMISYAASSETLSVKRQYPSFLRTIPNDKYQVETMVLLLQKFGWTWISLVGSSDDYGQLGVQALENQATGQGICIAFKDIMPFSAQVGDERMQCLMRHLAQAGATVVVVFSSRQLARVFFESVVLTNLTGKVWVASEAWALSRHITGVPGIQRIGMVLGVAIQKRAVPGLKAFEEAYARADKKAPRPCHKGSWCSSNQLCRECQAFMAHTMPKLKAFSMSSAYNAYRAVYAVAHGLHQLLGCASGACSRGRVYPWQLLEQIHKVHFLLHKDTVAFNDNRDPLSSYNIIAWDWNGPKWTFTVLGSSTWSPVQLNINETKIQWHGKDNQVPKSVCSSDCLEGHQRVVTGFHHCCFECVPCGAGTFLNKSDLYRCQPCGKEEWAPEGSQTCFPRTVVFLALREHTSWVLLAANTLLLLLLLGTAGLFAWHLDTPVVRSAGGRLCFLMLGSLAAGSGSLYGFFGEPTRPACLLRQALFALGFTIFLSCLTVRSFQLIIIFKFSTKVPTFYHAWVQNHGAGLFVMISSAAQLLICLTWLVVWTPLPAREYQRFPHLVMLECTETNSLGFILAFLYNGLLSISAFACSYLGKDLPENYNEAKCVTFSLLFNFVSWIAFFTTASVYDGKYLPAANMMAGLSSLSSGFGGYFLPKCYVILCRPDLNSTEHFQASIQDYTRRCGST
The assay is described as follows: Calcium assay, subunit expressed alone. It is filed as cell-based.

Protocol for hTAS1R1: (§1) HEK293T/17 cells (ATCC CRL-11268) were seeded into clear bottom black 96-well plates coated with poly-D-lysine at a density of 32500 cells/well in 100 μL of DMEM containing 4.5 g/L glucose and supplemented with penicillin/streptomycin, 2 mM GlutaMAX and 10 % dialyzed fetal bovine serum. The plates were incubated for 24 h at 37 °C and 7.3 % CO2 in a humidified atmosphere. After incubation, using Fugene® 4 K (0.46 μL/well, Promega, Illkirch, France), the cells were transiently transfected with pcDNA3-hTAS1R1-WT (60 ng/well) or TAS1R1 mutants, pcDNA4-rTAS1R3 (60 ng/well), pcDNA3-Gα15i2 (10 ng/well), and pGP-CMV-GCaMP6s (Addgene #40753; 10 ng/well) as a genetically encoded calcium indicator. Twenty-four hours after transfection, the HEK293T/17 cells were rinsed with 100 μL of C1 buffer (130 mM NaCl, 5 mM KCl, 10 mM HEPES, 2 mM CaCl2, and 5 mM sodium pyruvate, pH 7.4). For each molecule tested, a semi-logarithmic concentration range was created consisting of seven increasing concentrations and a negative control (zero dose) made of buffer C1. […] After 20 s of basal fluorescence calcium measurement, the cells were stimulated via automatic injection of a range of compounds in eight wells, and the signal emission was recorded for an additional 70 s, via a FlexStation 3® fluorometric microplate reader (Molecular Devices, San Jose, CA, USA). […] The emitted fluorescence was measured at a wavelength of 510 nm after excitation at 488 nm. […] For each well, the decrease in the raw fluorescence as the relative fluorescence changed was calculated as ΔF/F0. Replicates were averaged for the wells subjected to the same stimuli, the background signal was subtracted, and the fluorescence changes in mock-transfected cells were subtracted. The half-maximal effective concentration (EC50) and maximal signal amplitude (max ∆F/F0) were calculated via non-linear regression of the sigmoidal function four-parameter logistic equation [f(x) = min + (max − min)/(1 + (x/EC50)^nH)] via SigmaPlot 15.0 software (Grafiti LLC, Palo Alto, CA, USA). […]
Protocol for hTAS1R2/hTAS1R3: as §1

By EC50 is commonly meant the concentration giving half of the maximal effect. Regarding `N[C@@H](CCC(=O)N[C@@H](CS)C(=O)NCC(=O)O)C(=O)O` [GSH, γ-L-glutamyl-L-cysteinyl-glycine], at hTAS1R2/hTAS1R3, the “effect of 10 mM GSH on the response to sucralose” value is on record as “unaffected” and the EC50 was found to be 591 ± 344 µM. Also, the “effect of 10 mM GSH on the response to S807” value on hTAS1R1 was “not increased”. The “response of transfected cells” value on hTAS1R1 (GSH alone, Fig. 5A) was “did not respond”.
As for `CCCC(CCC)NC(=O)c1ccc2c(c1)OCO2` [S807, N-(heptan-4-yl)benzo[d][1,3]dioxole-5-carboxamide, reference compound], the EC50 at hTAS1R1 (S807 alone, Fig. 5D) was found to be 0.89 ± 0.13 µM.
Consider `OC[C@H]1O[C@H](O[C@]2(CCl)O[C@H](CCl)[C@@H](O)[C@@H]2O)[C@H](O)[C@@H](O)[C@H]1Cl` [sucralose, reference compound], for which the EC50 on hTAS1R2/hTAS1R3 worked out at 61 ± 2 µM.
